Results from patent US10093713B2, “GIP-GLP-1 dual agonist compounds and methods” (priority 2013, dated 2018).
Like-named read-outs stand apart in the source and are kept apart here. *1 amine or outer side, *2 acyl side, *3 side chain or, on linkers, in order; H or OH if unused. Where a SMILES comes first, the peptide text is derived from it. Side-chain parts run from the residue outwards. [ ]: non-standard residue; d: D form. The star is where a group is joined. C18 diacid = O=C(O)CCCCCCCCCCCCCCCCC(=O)*; γGlu = O=C(O)[C@H](CCC(=O)[*:2])N[*:1]; AEEA = NCCOCCOCC(=O)O; Aib = CC(C)(N)C(=O)O

Columns and labels:
human GIP R = molecular target: T1, human GIP R (Homo sapiens, UniProt P48546); test: Human GIP receptor (GIP R) activity assay, cAMP induction (AlphaScreen) in HEK293 cells; assay type: cell-based; conditions: read-out: hGIP-R cAMP EC50 average value
T1 construct: expressed in transfected cells
T1 sequence (P48546 22-466): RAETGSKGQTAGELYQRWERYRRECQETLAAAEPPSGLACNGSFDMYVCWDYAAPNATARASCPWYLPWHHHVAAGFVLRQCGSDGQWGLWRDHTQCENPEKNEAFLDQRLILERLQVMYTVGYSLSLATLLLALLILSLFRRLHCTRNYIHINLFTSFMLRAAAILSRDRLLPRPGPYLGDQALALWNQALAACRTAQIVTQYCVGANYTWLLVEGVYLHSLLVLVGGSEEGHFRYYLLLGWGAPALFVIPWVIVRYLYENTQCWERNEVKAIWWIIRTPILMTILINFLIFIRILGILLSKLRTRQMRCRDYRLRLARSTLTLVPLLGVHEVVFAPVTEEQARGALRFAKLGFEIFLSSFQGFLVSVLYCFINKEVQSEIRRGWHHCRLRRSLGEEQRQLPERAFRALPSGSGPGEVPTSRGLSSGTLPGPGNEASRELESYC
Method: (§1) Human GIP Receptor (GIP R) and GLP-1 Receptor (GLP-1 R) Activity Assay
(§2) In vitro effects of peptide conjugates of the invention were assessed by measuring the induction of cAMP following stimulation of the respective receptor by GIP, GLP1 or analogues of these, as outlined in the invention, using the AlphaSceen® cAMP kit from Perkin-Elmer according to instructions. Briefly, HEK293 cells expressing the human GIP R or GLP-1 R (stable cell lines generated through transfection of the cDNA for human GIP R or GLP-1 and selection of stable clones) were seeded at 30,000 cells/well in 96-well microtiter plates coated with 0.01% poly-L-lysine, and grown for 1 day in culture in 200 μl growth medium (DMEM, 10% FCS, Penicillin (100 IU/ml), Streptomycin (100 μg/ml)). On the day of analysis, growth medium was removed and the cells were washed once with […] Tyrode's buffer (Tyrode's Salts (9.6 g/l), 10 mM HEPES, pH 7.4). […] The Assay buffer was removed and cells are lysed in 80 μl Lysis buffer (0.1% w/v BSA, 5 mM HEPES, 0.3% v/v Tween-20) per well. From each well 10 μl lysed cells was transferred to a 384-well plate and mixed with 15 μl bead-mix (1 Unit/15 μl anti-cAMP Acceptor Beads, 1 Unit/15 μl Donor Beads, and 1 Unit/15 μl Biotinylated cAMP in Assay Buffer). The plates were mixed and incubated in the dark for an hour at room temperature before measuring using an Envision™ plate reader (Perkin-Elmer).
(§3) The resulting cAMP curves were plotted as absolute cAMP concentrations (nM) over log (test compound concentration) and analyzed using the curve fitting program XLfit.
(§4) Parameters calculated to describe both the potency as well as the agonistic activity of each test compound on the receptors were:
(§5) EC50, a concentration resulting in a half-maximal elevation of cAMP levels, reflecting the potency of the test compound.

human GLP-1 R = molecular target: T2, human GLP-1 R (Homo sapiens, UniProt P43220); test: Human GLP-1 receptor (GLP-1 R) activity assay, cAMP induction (AlphaScreen) in HEK293 cells; assay type: cell-based
T2 construct: expressed in transfected cells
T2 sequence (P43220 24-463): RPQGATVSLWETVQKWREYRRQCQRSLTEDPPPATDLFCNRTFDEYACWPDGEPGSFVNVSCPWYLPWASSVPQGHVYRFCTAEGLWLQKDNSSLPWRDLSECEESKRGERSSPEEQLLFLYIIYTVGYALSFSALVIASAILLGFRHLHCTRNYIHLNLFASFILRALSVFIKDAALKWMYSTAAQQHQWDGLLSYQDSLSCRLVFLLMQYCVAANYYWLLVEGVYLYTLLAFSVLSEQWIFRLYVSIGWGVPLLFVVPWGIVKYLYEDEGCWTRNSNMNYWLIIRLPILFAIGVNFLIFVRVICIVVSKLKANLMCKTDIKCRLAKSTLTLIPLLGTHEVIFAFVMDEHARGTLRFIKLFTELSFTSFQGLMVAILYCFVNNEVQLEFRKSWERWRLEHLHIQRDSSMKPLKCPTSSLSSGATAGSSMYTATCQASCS
Method: as §1, §2, §3, §4, §5

[1] = Table 2a, secondary assay study
[2] = Table 2a, secondary assay study, read-out: hGLP1-R cAMP EC50 average value
[3] = Table 2, HEK293 cells expressing human GIP R
[4] = Table 2, HEK293 cells expressing human GLP-1 R, read-out: hGLP1-R cAMP EC50 average value

## CC[C@H](C)[C@H](NC(=O)[C@H](CO)NC(=O)[C@H](Cc1ccc(O)cc1)NC(=O)[C@H](CC(=O)O)NC(=O)[C@H](CO)NC(=O)[C@@H](NC(=O)[C@H](Cc1ccccc1)NC(=O)[C@@H](NC(=O)CNC(=O)[C@H](CCC(=O)O)NC(=O)C(C)(C)NC(=O)[C@@H](N)Cc1ccc(O)cc1)[C@@H](C)O)[C@@H](C)O)C(=O)N[C@@H](C)C(=O)N[C@@H](CC(C)C)C(=O)N[C@@H](CC(=O)O)C(=O)N[C@@H](CCCCN)C(=O)N[C@@H](CCCCNC(=O)COCCOCCNC(=O)COCCOCCNC(=O)CC[C@H](NC(=O)CCCCCCCCCCCCCCCCCCC(=O)O)C(=O)O)C(=O)N[C@@H](C)C(=O)N[C@@H](CCC(N)=O)C(=O)N[C@@H](CCCNC(=N)N)C(=O)N[C@@H](C)C(=O)N[C@@H](Cc1ccccc1)C(=O)N[C@H](C(=O)N[C@@H](CC(N)=O)C(=O)N[C@@H](Cc1c[nH]c2ccccc12)C(=O)N[C@@H](CC(C)C)C(=O)N[C@H](C(=O)N[C@@H](C)C(=O)NC(C)(C)C(=O)N[C@@H](CCCCN)C(=O)N1CCC[C@H]1C(=O)N[C@@H](CO)C(=O)N[C@@H](CO)C(=O)NCC(=O)N[C@@H](C)C(=O)N1CCC[C@H]1C(=O)N1CCC[C@H]1C(=O)N1CCC[C@H]1C(=O)N[C@@H](CO)C(N)=O)C(C)C)C(C)C [Compound 16]
Human GIP R; [1]
  EC50: 8 pM
Human GLP-1 R; [2]
  EC50: 9 pM

## CC[C@H](C)[C@H](NC(=O)[C@H](CO)NC(=O)[C@H](CC(C)C)NC(=O)[C@H](CC(=O)O)NC(=O)[C@H](CO)NC(=O)[C@@H](NC(=O)[C@H](Cc1ccccc1)NC(=O)[C@@H](NC(=O)CNC(=O)[C@H](CCC(=O)O)NC(=O)C(C)(C)NC(=O)[C@@H](N)Cc1ccc(O)cc1)[C@@H](C)O)[C@@H](C)O)C(=O)N[C@@H](C)C(=O)N[C@@H](CC(C)C)C(=O)N[C@@H](CCC(=O)O)C(=O)N[C@@H](CCCCN)C(=O)N[C@@H](CCCCNC(=O)COCCOCCNC(=O)COCCOCCNC(=O)CC[C@H](NC(=O)CCCCCCCCCCCCCCCCC(=O)O)C(=O)O)C(=O)N[C@@H](C)C(=O)N[C@@H](CCC(N)=O)C(=O)N[C@@H](CCCNC(=N)N)C(=O)N[C@@H](C)C(=O)N[C@@H](Cc1ccccc1)C(=O)N[C@H](C(=O)N[C@@H](CCC(=O)O)C(=O)N[C@@H](Cc1c[nH]c2ccccc12)C(=O)N[C@@H](CC(C)C)C(=O)N[C@@H](CC(C)C)C(=O)N[C@@H](C)C(=O)N[C@@H](CCC(N)=O)C(=O)N[C@@H](CCCCN)C(N)=O)C(C)C [Compound 17] (H-Y[Aib]EGTFTSDLSIALEKK([AEEA-AEEA-γGlu-C18 diacid])AQRAFVEWLLAQK-NH2)
Human GIP R; [3]
  EC50: 11 pM
Human GLP-1 R; [4]
  EC50: 6.2 pM
Human GLP-1 R; Table 3, most comprehensive data, read-out: hGLP-1-R cAMP EC50 average value
  EC50: 6 pM

## CC[C@H](C)[C@H](NC(=O)[C@H](CO)NC(=O)[C@H](Cc1ccc(O)cc1)NC(=O)[C@H](CC(=O)O)NC(=O)[C@H](CO)NC(=O)[C@@H](NC(=O)[C@H](Cc1ccccc1)NC(=O)[C@@H](NC(=O)CNC(=O)[C@H](CCC(=O)O)NC(=O)C(C)(C)NC(=O)[C@@H](N)Cc1ccc(O)cc1)[C@@H](C)O)[C@@H](C)O)C(=O)N[C@@H](C)C(=O)N[C@@H](CC(C)C)C(=O)N[C@@H](CCC(=O)O)C(=O)N[C@@H](CCCCN)C(=O)N[C@@H](CCCCNC(=O)COCCOCCNC(=O)COCCOCCNC(=O)CC[C@H](NC(=O)CCCCCCCCCCCCCCCCC(=O)O)C(=O)O)C(=O)N[C@@H](C)C(=O)N[C@@H](CCC(N)=O)C(=O)N[C@@H](CCCNC(=N)N)C(=O)N[C@@H](C)C(=O)N[C@@H](Cc1ccccc1)C(=O)N[C@H](C(=O)N[C@@H](CCC(=O)O)C(=O)N[C@@H](Cc1c[nH]c2ccccc12)C(=O)N[C@@H](CC(C)C)C(=O)N[C@@H](CC(C)C)C(=O)N[C@@H](C)C(=O)N[C@@H](CCC(N)=O)C(=O)N[C@@H](CCCCN)C(N)=O)C(C)C [Compound 17] (H-Y[Aib]EGTFTSDYSIALEKK([AEEA-AEEA-γGlu-C18 diacid])AQRAFVEWLLAQK-NH2)
Human GIP R; [1]
  EC50: 8 pM
Human GLP-1 R; [2]
  EC50: 15 pM

## CC[C@H](C)[C@H](NC(=O)[C@H](CO)NC(=O)[C@H](CC(C)C)NC(=O)[C@H](CC(=O)O)NC(=O)[C@H](CO)NC(=O)[C@@H](NC(=O)[C@H](Cc1ccccc1)NC(=O)[C@@H](NC(=O)CNC(=O)[C@H](CCC(=O)O)NC(=O)C(C)(C)NC(=O)[C@@H](N)Cc1ccc(O)cc1)[C@@H](C)O)[C@@H](C)O)C(=O)N[C@@H](C)C(=O)N[C@@H](CC(C)C)C(=O)N[C@@H](CCC(=O)O)C(=O)N[C@@H](CCCCN)C(=O)N[C@@H](CCCCNC(=O)COCCOCCNC(=O)COCCOCCNC(=O)CC[C@H](NC(=O)CCCCCCCCCCCCCCCCC(=O)O)C(=O)O)C(=O)N[C@@H](C)C(=O)N[C@@H](CCC(N)=O)C(=O)N[C@@H](CCCNC(=N)N)C(=O)N[C@@H](C)C(=O)N[C@@H](Cc1ccccc1)C(=O)N[C@H](C(=O)N[C@@H](CCC(=O)O)C(=O)N[C@@H](Cc1c[nH]c2ccccc12)C(=O)N[C@@H](CC(C)C)C(=O)N[C@@H](CC(C)C)C(=O)N[C@@H](C)C(=O)N[C@@H](CCC(N)=O)C(=O)N[C@@H](CCCCN)C(N)=O)C(C)C [Compound 18] (H-Y[Aib]EGTFTSDLSIALEKK([AEEA-AEEA-γGlu-C18 diacid])AQRAFVEWLLAQK-NH2)
Human GIP R; [1]
  EC50: 11 pM
Human GLP-1 R; [2]
  EC50: 6 pM

## CC[C@H](C)[C@H](NC(=O)[C@H](CO)NC(=O)[C@H](Cc1ccc(O)cc1)NC(=O)[C@H](CC(=O)O)NC(=O)[C@H](CO)NC(=O)[C@@H](NC(=O)[C@H](Cc1ccccc1)NC(=O)[C@@H](NC(=O)CNC(=O)[C@H](CCC(=O)O)NC(=O)C(C)(C)NC(=O)[C@@H](N)Cc1ccc(O)cc1)[C@@H](C)O)[C@@H](C)O)C(=O)N[C@@H](Cc1ccc(O)cc1)C(=O)N[C@@H](CC(C)C)C(=O)N[C@@H](CCC(=O)O)C(=O)N[C@@H](CCCCN)C(=O)N[C@@H](CCCCNC(=O)COCCOCCNC(=O)COCCOCCNC(=O)CC[C@H](NC(=O)CCCCCCCCCCCCCCCCC(=O)O)C(=O)O)C(=O)N[C@@H](C)C(=O)N[C@@H](CCC(N)=O)C(=O)N[C@@H](CCCNC(=N)N)C(=O)N[C@@H](C)C(=O)N[C@@H](Cc1ccccc1)C(=O)N[C@H](C(=O)N[C@@H](CCC(=O)O)C(=O)N[C@@H](Cc1c[nH]c2ccccc12)C(=O)N[C@@H](CC(C)C)C(=O)N[C@@H](CC(C)C)C(=O)N[C@@H](CCCNC(=N)N)C(=O)N[C@@H](C)C(N)=O)C(C)C [Compound 18] (H-Y[Aib]EGTFTSDYSIYLEKK([AEEA-AEEA-γGlu-C18 diacid])AQRAFVEWLLRA-NH2)
Human GIP R; [3]
  EC50: 14 pM
Human GLP-1 R; [4]
  EC50: 22 pM

## CC[C@H](C)[C@H](NC(=O)[C@H](CO)NC(=O)[C@H](Cc1ccc(O)cc1)NC(=O)[C@H](CC(=O)O)NC(=O)[C@H](CO)NC(=O)[C@@H](NC(=O)[C@H](Cc1ccccc1)NC(=O)[C@@H](NC(=O)CNC(=O)[C@H](CCC(=O)O)NC(=O)C(C)(C)NC(=O)[C@@H](N)Cc1ccc(O)cc1)[C@@H](C)O)[C@@H](C)O)C(=O)N[C@@H](C)C(=O)N[C@@H](CC(C)C)C(=O)N[C@@H](CC(=O)O)C(=O)N[C@@H](CCCCN)C(=O)N[C@@H](CCCCNC(=O)COCCOCCNC(=O)COCCOCCNC(=O)CC[C@H](NC(=O)CCCCCCCCCCCCCCCCC(=O)O)C(=O)O)C(=O)N[C@@H](C)C(=O)N[C@@H](CCC(N)=O)C(=O)N[C@@H](CCCNC(=N)N)C(=O)N[C@@H](C)C(=O)N[C@@H](Cc1ccccc1)C(=O)N[C@H](C(=O)N[C@@H](CC(N)=O)C(=O)N[C@@H](Cc1c[nH]c2ccccc12)C(=O)N[C@@H](CC(C)C)C(=O)N[C@H](C(=O)N[C@@H](C)C(=O)NC(C)(C)C(=O)N[C@@H](CCCCN)C(N)=O)C(C)C)C(C)C [Compound 19] (H-Y[Aib]EGTFTSDYSIALDKK([AEEA-AEEA-γGlu-C18 diacid])AQRAFVNWLVA[Aib]K-NH2)
Human GIP R; [3]
  EC50: 7.3 pM
Human GIP R; Table 3, most comprehensive data
  EC50: 7 pM
Human GLP-1 R; [4]
  EC50: 14 pM
